Source: US8790883B2, “Methods of identifying NF-κB inhibitors” (priority 2003, dated 2014)
pIC50, pKd: −log10 of the molar value. Peptide text beside a SMILES is read from it. * marks the point of attachment. BODIPYFLEthylmaleimide = Cc1cc(C)n2c1C=C1C=CC(CCC(=O)NCCN3C(=O)CC(*)C3=O)=[N+]1[B-]2(F)F

Columns and labels:
[1] = tested on: 70Z/3-C3 cells
Description: (§1) (A) Cellular delivery of NEMO peptides mediated by conjugation with the Antennapedia peptide.
(§2) 0.5×10^6 70Z/3-C3 cells in 0.5 ml were incubated at 37° C. for different times and with various concentrations of peptides as indicated in the Figure legends. The cell suspension was centrifugated at 1,000×g at room temperature and the cell pellet was then washed three times with PBS buffer (1 ml), and finally was resuspended with 500 μl of PBS buffer containing 0.1% sodium azide. Fluorescence analysis was performed with a FACSCalibur (BD Biosciences) and a minimum of 15,000 events per sample was selected. All experiments were performed in duplicates.

[2] = Cytotoxicity of NLM-DR derived peptides (MTS, FACS, microscope), Table 2
[3] = biological target: T1, CC2 peptide (minimal oligomerization domain of NEMO) (Mus musculus, UniProt O88522); test: Fluorescence anisotropy titration with CC2 peptide; type: binding, murine
T1 construct: made in house; host or cells: chemical solid-phase synthesis (Fmoc/tBu), no expression host
T1 sequence (O88522 253-287): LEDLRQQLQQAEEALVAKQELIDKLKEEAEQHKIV
Description: (A) Direct titration of BODIPY-Ant-CC2 (1 μM) with CC2 by fluorescence anitropy. The concentration of CC2 was determined by amino acid analysis. Anisotropy values of BODIPY-Ant-CC2 in milliunits (mA) were plotted against an increasing concentration of the CC2 peptide. […] The two dashed lines represent a stoichiometric titration and intersect at an CC2 concentration of […]. Given the 1 μM concentration of the BODIPY-Ant-CC2, this gives a complex stoechiometrie of 0.8. (B) Direct titration of BODIPY-Ant-LZ (0.1 μM) with CC2 by fluorescence anitropy. […]
Anisotropy measurements were performed with a PTI QUANTAMASTER™ fluorometer equipped with polarizers for the excitation and emission beams. […] Steady-state fluorescence anisotropy was expressed as millianisotropy (mA) and was calculated according to the equations: (1) A=(IVV−GIVH)/(IVV+2GIVH); (2) G=IHV/IHH.; where A is anisotropy, G is a correction factor for wavelength-dependent distortion and I is the fluorescence intensity component (subscript referring to the vertical and horizontal positioning at the excitation and emission polarizers, respectively). […] The dissociation constant parameter was estimated by globally fitting the anisotropy data to binding isotherm equation as described in Agou et al. (J Biol Chem. 2004 Jul. 2; 279(27):27861-9) using KALEIDAGRAPH™ nonlinear regression software (Synergy Software, reading PA). […]

[4] = tested on: 70Z/3-C3 cells; test: FACS analysis of cellular uptake of BODIPY-labelled peptides; settings: 0.2, 2 or 20 μM, 5 h, 37° C.
Description: as §1, §2

[5] = tested on: LPS-induced NF-κB activation; test: NF-κB inhibition assay, first procedure: LPS-induced NF-κB dependent β-galactosidase reporter in 70Z/3-C3 cells; type: cell-based, murine
Description: The resulting cell line, 70Z3-C3, was incubated for 2 hours in the absence or in the presence of 20 μM of antennapedia peptide (Ant), or BODIPY-labeled antennapedia peptide (BODIPY-Ant), or BODIPY-labeled antennapedia peptide coupled to CC2 (BODIPY-Ant-CC2) or LZ (BODIPY-Ant-LZ) peptides, After peptide internalization, cells were treated for 5 hours with LPS (3 μg/ml, (+) in left panel) or untreated (right panel and (−) in left panel) and the NF-κB activity was measured by β-galactosidase assay. Error bars represent the standard deviation of three separate experiments. (B) Concentration dependence of inhibition of LPS-induced NF-κB activation by BODIPY-Ant-CC2 peptide (left panel) or BODIPY-Ant-LZ peptide (right panel). Cells were treated as in (A) but with different concentration of peptide as indicated. The potential of each peptide to inhibit LPS-induced NF-κB activation was measured by determining the IC50 value that correspond to 50% inhibition of LPS-induced NF-κB activation as compared to the control (no peptide) (C). (D) Effect of the N-fusion sequence of antennapedia on the inhibition of NF-κB activation. Control (no peptide) or CC2, or LZ peptides, with (BODIPY-ANT-CC2, BODIPY-ANT-LZ) or without the antennapedia sequence at the N-terminus (CC2, LZ) were incubated for 2 hours with 70Z3-C3 cells followed with (+) or without (−) the LPS-treatment for 3 hours. NF-κB activity was then measured by β-galactosidase assay.
In a first procedure 2.2×10^5 70Z/3-C3 cells in 220 μl of RPMI 1640 supplemented with 10% fetal calf serum (FCS) and 50 μM β-mercaptoethanol were placed in a 96-well plate and incubated with various concentrations of peptide (0 to 20 μM) at 37° C. in 5% CO2 incubator. After two hours an equal portion (100 μl) of each cell sample transferred in two wells containing each 10^5 cells. One aliquot of cells was then treated for 5 hours with lipopolysaccharides from Salmonella abortus (Sigma) at 0.5 μg/ml final concentration, and the other one left-treated. After 5 hours, cells were centrifuged at 400×g for 5 min at room temperature and the cell pellets were washed three times with cold PBS (250 μl) by centrifugation. Cells were then lysed in the lysis buffer (25 mM tris-phosphate buffer at pH 7.8 containing 8 mM magnesium chloride, 1 mM dithioerythreitol, 1% Triton X-100, 15% glycerol and a protease inhibitor mixture (Roche)), and samples were centrifuged at 4° C. for 20 min to clarify the lysate. The supernatant was then kept on ice, and 30 μl was then assayed to measure the β-galactosidase activity with a plate luminometer (Berthold) using the GALACTON-STAR™ as chemiluminescent substrate (BD Biosciences Clontech, Bronstein et al., 1989). Background of reaction was measured by mixing for 1 hour 30 μl of lysis buffer with the reaction buffer (196 μl) and the GALACTON-STAR™ substrate (4 μl) provided by BD Biosciences. In a second procedure and a more stringent assay, 70Z/3-C3 cells (2.2×105 in 220 μl medium) were centrifuged at 400×g at room temperature after peptide internalization for 2 hours, and cell pellets were washed three times with 200 μl of PBS by centrifugation. Cells were then diluted three times with complete medium, and allowed to grow for at least 24 hours. The following steps are identical to the first procedure.
To analyze the inhibition potential of LPS-induced NF-κB activation by cell permeable BODIPY-Ant-CC2 and BODIPY-Ant-LZ peptides, the present inventors stably transfected the murine pre-B 70Z3 cell line with p12XlacZ-kB, which bears the β-galactosidase reporter gene under the control of the NF-κB transcription factor.

[6] = tested on: LPS-induced NF-κB activation; test: More stringent NF-κB inhibition assay, second procedure: peptide internalization, washing, 24 h growth, then LPS; type: cell-based, murine; settings: 10 μM peptide, LPS 5 h after 24 h growth
Text: Left panels show a helical wheel diagram of CC2 (A) and LZ (B) peptides. The view is from the top the molecule. The (a) through (g) positions, which are an essential feature of coiled coil sequence (Vinson, 2002, Mol. Cell. Biol.) represent sequential positions in each peptide sequence. The first (a) and fourth (d) positions that are generally occupied by hydrophobic amino acids constitute the hydrophobic core for parallel as well as antiparallel-coiled coils. Mutations that were introduced in (a) positions of the CC2 variant (BODIPY-Ant-CC2 (Mu); shown as residues 6-40 of SEQ ID NO:3, with glycine mutations corresponding to residues 6-40 of SEQ ID NO:5) or in (d) positions of the LZ variant (BODIPY-Ant-(Mu) are shown. In the right panels, 70Z3-C3 cells were incubated for 2 hours in the absence (control) or in the presence of 10 μM of cell permeable wild type (BODIPY-Ant-CC2 (WT)) or mutant (BODIPY-Ant-CC2 (Mu)) CC2 peptides (A) or wild type (BODIPY-Ant-LZ (WT)) or mutant (BODIPY-Ant-(Mu)) LZ peptides (B). The cells were then extensively washed to remove the excess peptide which had not been internalized and the cells were then diluted three times and allowed to grow for 24 hours before treatment for 5 hours with (+) or without LPS (−). NF-κB activity was measured using the β-galactosidase assay. Error bars represent the standard deviation of two independent experiments.
(A) Sequence alignment of the NEMO-derived LZ (residues 301-336 of SEQ ID NO: 12) and the GCN4 peptides (residues 23-55 of SEQ ID NO:8). Both coiled-coil motifs were aligned using clustalX. Identical and similar amino acid residues (shaded) are indicated by (!) or (*), respectively. (B) Overview and helical wheel diagram of the GCN4 coiled-coil (top view). The amino-acid sequence of GCN4 is shown with its corresponding [a-g] positions and residues that differ from the corresponding NEMO-derived LZ sequence are boxed according to their degree of conservation. Identical (open square) and similar residues (open triangle) are indicated. […] NF-κB activity was measured using the b-galactosidase assay. […]

[7] = Binding of NLM peptides, Hill coefficient calculation of cooperativity indices
Text: The present inventors compared NLM-DR to the corresponding NLM peptide by measuring the respective cooperativity indices, which evidence an advantage of NLM-DR mutated peptide over the wild-type.
The calculation of the “cooperativity indice” by means of Hill coefficient is based on the following formula Boundmax×L^n/(KD^n+L^n)
Wherein • Boundmax is the maximum concentration of the bound ligand, • L is the concentration of the free ligand, • n is the cooperativity indice and • KD, is the affinity constant of the ligand by the protein.

[8] = Circular dichroism studies of helix stability; type: physicochemical
Text: From circular dichroism studies (CD), it appears that CC2 and LZ peptides adopt a helicoidal structure, depending on their concentration. […] RMN and Rayon X Diffraction studies have confirmed the structure of CC2.

[9] = Analytical gel filtration, oligomeric states of peptides; type: physicochemical; settings: 10 μM, Superdex 75, buffer with 0.1 mM DDM
Description: All peptides were loaded at a 10 μM concentration on a superdex 75 HR10/30 column equilibrated in a buffer containing 0.1 mM DDM to improve recovery (see “Materials and methods”). Chromatographic profiles of the CC2 mutant (dashed line) and the CC2 wild type (solid line) fused (BODIPY-Ant-CC2 (WT), BODIPY-Ant-CC2 (Mu), or not fused to the antennapedia sequence (CC2 (WT), CC2 (Mu)) are shown in left panels, and elution profiles of the LZ mutant (dashed line) and the wild type (solid line) fused (BODIPY-Ant-LZ (WT), BODIPY-Ant-LZ (Mu), or not fused to the antennapedia sequence (LZ (WT), LZ (Mu)) are represented in right panels. Elution volumes of globular protein markers are indicated by arrows: Oval, ovalbumin (43 kDa); Chym, chymotrypsinogene A (25 kDa); Ribo, Ribonuclease (13.4 kDa) and Apro, aprotinin (6.5 kDa).
The oligomeric states of peptides were determined by filtration as described in Traincard et al., 2003. In brief, 500 μl samples were loaded on a SUPERDEX™ 75 HR 10/30 column equilibrated in 50 mM Tris-HCl pH 8.0 containing 200 mM NaCl and 0.1 mM DDM, at a constant flow rate of 0.4 ml/min. The presence of the DDM detergent was added in the equilibrium buffer to minimize the adsorption in the column and to increase the peptide recovery. The column was calibrated in the same equilibrium buffer with blue dextran 2000 (void volume), dithioerythritol (total volume), bovine serum albumin (67 kDa, Rs=35.2 Å), ovalbumine (43 kDa, Rs=27.5 Å), chymotrypsinogen A (25 kDa, Rs=21.1 Å), ribonuclease A (13.7 kDa, Rs=16.4 Å), cytochrome C (12.4 kDa, Rs=17.7 Å) and aprotinin (6.5 KDa, Rs=13.5 Å).

## CC[C@H](C)[C@H](NC(=O)[C@H](CC(=O)O)NC(=O)[C@H](C)NC(=O)[C@H](CCC(N)=O)NC(=O)[C@H](C)NC(=O)[C@H](CCCCN)NC(=O)[C@H](CC(C)C)NC(=O)[C@H](CCCNC(=N)N)NC(=O)[C@H](CCCNC(=N)N)NC(=O)[C@H](CCCNC(=N)N)NC(=O)[C@H](CCCNC(=N)N)NC(=O)[C@H](CCCNC(=N)N)NC(=O)[C@H](CCCNC(=N)N)NC(=O)[C@H](CCCNC(=N)N)NC(=O)[C@H](CCCNC(=N)N)NC(=O)[C@H](CCCNC(=N)N)NC(=O)[C@H](CSC1CC(=O)N(CCNC(=O)CCC2=[N+]3C(=Cc4c(C)cc(C)n4[B-]3(F)F)C=C2)C1=O)NC(C)=O)C(=O)N[C@@H](Cc1ccc(O)cc1)C(=O)N[C@@H](CCCCN)C(=O)N[C@@H](C)C(=O)N[C@@H](CCCNC(=N)N)C(=O)N[C@@H](Cc1ccccc1)C(=O)N[C@@H](CCC(N)=O)C(=O)N[C@@H](C)C(=O)N[C@@H](CCC(=O)O)C(=O)N[C@@H](CCCNC(=N)N)C(=O)N[C@@H](Cc1c[nH]cn1)C(=O)N[C@@H](C)C(=O)N[C@@H](CCCNC(=N)N)C(=O)N[C@@H](CCC(=O)O)C(=O)N[C@@H](CCCCN)C(N)=O (stereo partly shown) [BODIPY-R9-NLM-DR] (Ac-C(BODIPYFLEthylmaleimide)RRRRRRRRRLKAQADIYKARFQAERHAREK-NH2)
[1]
  Cellular uptake relative efficiency (FACS): ++
[2]
  Cytotoxicity Cell morphology FACS: no
  Cytotoxicity Cell morphology Microscope: no
[2]; MTS cell proliferation assay (Promega)
  Cytotoxicity MTS Assay: no

## Ac-C(BODIPYFLEthylmaleimide)RQIKIWFQNRRMKWKKSKGMQLEDLRQQLQQAEEALVAKQELIDKLKEEAEQHKIV-NH2 [BODIPY-Ant-CC2 (WT)]
[3]
  pKd: 4.82
[3]; 1 μM BODIPY-Ant-CC2 titrated with CC2
  Binding stoichiometry of complex with CC2: 0.8
[4]
  Dependency of intracellular concentration on incubated concentration: linear dependancy
[5]; 20 μM peptide 2 h, LPS (3 μg/ml) 5 h, 70Z3-C3 cells
  LPS-induced NF-κB activation in presence of peptide: decreased significantly
[5]; 20 μM peptide, B lymphocytes stimulated by LPS
  Reduction of NF-κB activity as compared with a control peptide: 70%
[5]; 70Z3-C3 cells, peptide 2 h, then LPS 5 h, β-galactosidase assay, read-out: IC50, 50% inhibition of LPS-induced NF-κB activation as compared to the control (no peptide)
  pIC50: 4.66
[6]
  Reduction of NF-κB activation: 1.7 fold

## LKAQADIYKARFQAERHAREK [NLM-DR]
[7]
  Affinity relative to wild-type NLM peptide, without accounting for cooperativity: 75 times
[8]
  Helix stability by circular dichroism: helix more stable than the wild-type peptide

## SKGMQLEDLRQQLQQAEEALVAKQELIDKLKEEAEQHKIV [CC2 (WT)]
[8]
  Helix stability by circular dichroism: helix more stable than LZ
[9]
  Oligomeric state by gel filtration: trimer
[5]; peptide 2 h, LPS 3 h, 70Z3-C3 cells (FIG. 3D)
  LPS-induced NF-κB activation, peptides not fused to antennapedia: same level of activation as the control
